Where two headings read alike, the source gives them in different places.
Legend:
[1] = test system: A549; assay: High-throughput calcein AM cytotoxicity assay, A549; format: cell-based, human; conditions: A549 cells
Source text: (§1) Standard errors are depicted with error bars.

[2] = test system: Hep3B; assay: High-throughput calcein AM cytotoxicity assay, Hep3B; format: cell-based, human; conditions: Hep 3B cells
Source text: as §1

[3] = test system: NmuMG; assay: cells; format: cell-based, mouse
Summary of the method: (§2)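 Cells seeded at 10,000–15,000/well, allowed 1 h attachment at 37 °C, then exposed to compounds for 72 h over five two-fold dilutions. After a PBS wash, calcein AM was added for 30 min at 37 °C and fluorescence read at 485/535 nm. IC50 from four-parameter logistic fit, ≥6 replicates.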

[4] = test system: NCI-H460; assay: High-throughput calcein AM cytotoxicity assay, NCI-H460; format: cell-based, human; conditions: NCI-H460 cells
Source text: as §1

[5] = test system: NCI/ADR-RES; assay: cells; format: cell-based, human; conditions: NCI/ADR-RES cells
Summary of the method: as §2

[6] = test system: SK-OV-3; assay: cells; format: cell-based, human; conditions: SK-OV-3 cells
Summary of the method: as §2

[7] = test system: SF-268; assay: cells; format: cell-based, human; conditions: SF-268 cells
Summary of the method: as §2

[8] = test system: Du145; assay: High-throughput calcein AM cytotoxicity assay, Du145; format: cell-based, human; conditions: Du145 cells
Source text: as §1

[9] = test system: MCF7; assay: High-throughput calcein AM cytotoxicity assay, MCF7; format: cell-based, human; conditions: MCF7 cells
Source text: as §1

[10] = test system: HCT-116; assay: High-throughput calcein AM cytotoxicity assay, HCT-116; format: cell-based, human; conditions: HCT-116 cells
Source text: as §1

[11] = NmuMG mouse mammary normal epithelial control line, read-out: IC50, NmuMG
[12] = NmuMG cells (mouse mammary normal epithelial control line), read-out: IC50

Row | Molecule | IC50 ([1]; read-out: IC50, A549) [nM] | IC50 ([2]; read-out: IC50, Hep 3B) [µM] | IC50 [3, 11] [µM] | IC50 ([4]; read-out: IC50, NCI-H460) [µM] | IC50 ([5]; read-out: IC50, NCI/ADR-RES) [nM] | IC50 ([6]; read-out: IC50, SK-OV-3) [µM] | IC50 ([7]; read-out: IC50, SF-268) [µM] | IC50 ([8]; read-out: IC50, Du145) [nM] | IC50 ([9]; read-out: IC50, MCF7) [µM] | IC50 ([10]; read-out: IC50, HCT-116) [µM] | IC50 ([1]; read-out: IC50) [nM] | IC50 ([2]; read-out: IC50) [µM] | IC50 [3, 12] [µM] | IC50 ([4]; read-out: IC50) [µM] | IC50 ([5]; read-out: IC50) [nM] | IC50 ([6]; read-out: IC50) [µM] | IC50 ([7]; read-out: IC50) [µM] | IC50 ([8]; read-out: IC50) [nM] | IC50 ([9]; read-out: IC50) [µM] | IC50 ([10]; read-out: IC50) [µM]
1 | CON([C@H]1CC[C@@]2(C)[C@H](CC[C@@H]3[C@@H]2CC[C@]2(C)[C@@H](C4=CC(=O)OC4)CC[C@]32O)C1)[C@@H]1O[C@H](CO)[C@@H](O)[C@@H](O)[C@@H]1O [20β, D-altroside] | 540 | 0.35 | 0.9 | 0.62 | 900 | 1.1 | 1.1 | 1200 | 1.5 | 1.1 |  |  |  |  |  |  |  |  |  | 
2 | CON(C1CCC2(C)C(CCC3C2CCC2(C)C(C4=CC(=O)OC4)CCC32O)C1)C1OC(CO)C(O)C(O)C1O [39α, L-taloside] |  |  |  |  |  |  |  |  |  |  | > 25000 | > 25 | > 25 | > 25 | > 25000 | > 25 | > 25 | > 25000 | > 25 | > 25
3 | 6-keto-D-galactoside [31α] | > 25000 | > 25 |  | > 25 | > 25000 | > 25 | > 25 | > 25000 | > 25 | > 25 |  |  | > 25 |  |  |  |  |  |  | 
4 | CON(C1CCC2(C)C(CCC3C2CCC2(C)C(C4=CC(=O)OC4)CCC32O)C1)C1OCC(O)C(O)C1O [14α, L-lyxoside] | > 25000 | > 25 | > 25 | > 25 | > 25000 | > 25 | > 25 | > 25000 | > 25 | > 25 |  |  |  |  |  |  |  |  |  | 
5 | CON(C1CCC2(C)C(CCC3C2CCC2(C)C(C4=CC(=O)OC4)CCC32O)C1)C1OC(CO)C(O)C(O)C1O [17α, L-alloside] | > 25000 | > 25 | > 25 | > 25 | > 25000 | > 25 | > 25 | > 25000 | > 25 | > 25 |  |  |  |  |  |  |  |  |  | 
6 | CON(C1CCC2(C)C(CCC3C2CCC2(C)C(C4=CC(=O)OC4)CCC32O)C1)C1OC(CO)C(O)C(O)C1O [26α, L-mannoside] | > 25000 | > 25 |  | > 25 | > 25000 | > 25 | > 25 | > 25000 | > 25 | > 25 |  |  | > 25 |  |  |  |  |  |  | 
7 | 6-deoxy-6-azido-D-mannoside [41α] |  |  |  |  |  |  |  |  |  |  | > 25000 | > 25 | > 25 | > 25 | > 25000 | > 25 | > 25 | > 25000 | > 25 | > 25
8 | CON(C1CCC2(C)C(CCC3C2CCC2(C)C(C4=CC(=O)OC4)CCC32O)C1)C1OC(CO)C(O)C(O)C1O [39β, L-taloside] | 890 | 0.96 | 0.5 | 1.1 | 1000 | 1.5 | 1.4 | 760 | 1.8 | 2.3 |  |  |  |  |  |  |  |  |  | 
9 | CON(C1CCC2(C)C(CCC3C2CCC2(C)C(C4=CC(=O)OC4)CCC32O)C1)C1OC(CO)C(O)C(O)C1O [27α, D-mannoside] | > 25000 | > 25 |  | > 25 | > 25000 | > 25 | > 25 | > 25000 | > 25 | > 25 |  |  | > 25 |  |  |  |  |  |  | 
10 | CON([C@H]1CC[C@@]2(C)[C@H](CC[C@@H]3[C@@H]2CC[C@]2(C)[C@@H](C4=CC(=O)OC4)CC[C@]32O)C1)[C@@H]1O[C@H](CO)[C@H](O)[C@H](O)[C@H]1O [22β, D-galactoside] | 970 | 0.6 | 1.5 | 1.6 | 800 | 1.5 | 1.2 | 1500 | 3 | 1.8 |  |  |  |  |  |  |  |  |  | 
11 | CON([C@H]1CC[C@@]2(C)[C@H](CC[C@@H]3[C@@H]2CC[C@]2(C)[C@@H](C4=CC(=O)OC4)CC[C@]32O)C1)[C@@H]1O[C@H](CO)[C@@H](O)[C@@H](O)[C@H]1O [18β, D-alloside] | 2000 | 3.3 | 3.1 | 3.2 | 800 | 6.4 | 3.5 | 2200 | 6.8 | 6 |  |  |  |  |  |  |  |  |  | 
12 | CON(C1CCC2(C)C(CCC3C2CCC2(C)C(C4=CC(=O)OC4)CCC32O)C1)C1OC(CO)C(O)C(O)C1O [40α, D-taloside] |  |  |  |  |  |  |  |  |  |  | > 25000 | > 25 | > 25 | > 25 | > 25000 | > 25 | > 25 | > 25000 | > 25 | > 25
13 | CON(C1CCC2(C)C(CCC3C2CCC2(C)C(C4=CC(=O)OC4)CCC32O)C1)C1OC(CO)C(O)C(O)C1O [29α, D-idoside] | > 25000 | > 25 |  | > 25 | > 25000 | > 25 | > 25 | > 25000 | > 25 | > 25 |  |  | > 25 |  |  |  |  |  |  | 
14 | CON([C@H]1CC[C@@]2(C)[C@H](CC[C@@H]3[C@@H]2CC[C@]2(C)[C@@H](C4=CC(=O)OC4)CC[C@]32O)C1)[C@H]1O[C@@H](CO)[C@H](O)[C@H](O)[C@H]1O [19β, L-altroside] | 760 | 2 | 1 | 1.6 | 410 | 1 | 1.2 | 2100 | 1.3 | 1.1 |  |  |  |  |  |  |  |  |  | 

Reference: patent publication US8507411B2, “Neoglycorandomization and digitoxin analogs” (priority 2004, dated 2013)
